Test results from US9045459B2, “Phenalkylamine derivatives, pharmaceutical compositions containing them, and their use in therapy” (AbbVie Deutschland GmbH & Co. KG, priority 2010, dated 2015).

Biological target: human GlyT1c transporter (Homo sapiens (Human), UniProt P48067)
Test: Radioligand binding assay using recombinant CHO cell membranes expressing human GlyT1
Settings: read-out: radioligand binding Kiapp
Experimental: 2. Radioligand binding assays using recombinant CHO cell membranes expressing human GlyT1:
Radioligand binding to human GlyT1c transporter-expressing membranes was determined as described in Mezler et al., Molecular Pharmacology 74:1705-1715, 2008.

Sequence of human GlyT1c transporter (P48067 whole entry): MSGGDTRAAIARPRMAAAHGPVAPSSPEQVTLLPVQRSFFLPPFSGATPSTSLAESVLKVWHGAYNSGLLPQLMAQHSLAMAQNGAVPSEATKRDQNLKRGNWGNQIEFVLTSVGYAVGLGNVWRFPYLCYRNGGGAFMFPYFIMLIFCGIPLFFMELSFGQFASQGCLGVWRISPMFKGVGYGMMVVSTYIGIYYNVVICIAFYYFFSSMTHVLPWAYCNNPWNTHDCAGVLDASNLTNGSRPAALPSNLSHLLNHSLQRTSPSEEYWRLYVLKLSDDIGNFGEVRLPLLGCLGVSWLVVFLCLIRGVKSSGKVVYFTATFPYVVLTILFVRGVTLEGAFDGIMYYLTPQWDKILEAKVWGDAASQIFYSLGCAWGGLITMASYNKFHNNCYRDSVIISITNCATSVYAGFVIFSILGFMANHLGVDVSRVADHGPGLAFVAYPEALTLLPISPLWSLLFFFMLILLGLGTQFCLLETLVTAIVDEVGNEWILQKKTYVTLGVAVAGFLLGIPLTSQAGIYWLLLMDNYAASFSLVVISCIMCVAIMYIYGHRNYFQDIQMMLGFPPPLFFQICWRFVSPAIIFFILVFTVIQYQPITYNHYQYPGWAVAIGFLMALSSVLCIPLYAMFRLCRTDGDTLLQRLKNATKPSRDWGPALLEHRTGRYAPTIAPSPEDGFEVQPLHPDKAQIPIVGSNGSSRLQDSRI

Row | Ki [µM] | Structure (SMILES)
1 | ≤ 10 | Cn1cnc(S(=O)(=O)N2CCc3ccc(C(CN)Cc4ccccc4)cc3C2)c1 (centres unmarked) [Example 1, 2-(2-(1-Methyl-1H-imidazol-4-ylsulfonyl)-1,2,3,4-tetrahydroisoquinolin-7-yl)-3-phenylpropan-1-amine]
2 | ≤ 10 | Cn1cc(S(=O)(=O)N2CCc3ccc(C(CN)Cc4ccccc4)cc3C2)cn1 (centres unmarked) [Example 2, 2-(2-(1-Methyl-1H-pyrazol-4-ylsulfonyl)-1,2,3,4-tetrahydroisoquinolin-7-yl)-3-phenylpropan-1-amine]
